Test results as given in patent US6982260B1, “Quinazolines and their use for inhibiting cyclin-dependent kinase enzymes” (Warner-Lambert Company, priority 1999, dated 2006).

Legend:
neointima formation = settings: intraluminal exposure of a denuded rat carotid artery; cited from earlier work
cdk4/D = cdk4/D (Homo sapiens, UniProt P11802); assay: Cyclin-Dependent Kinase 4 (cdk4) Assay; assay type: biochemical
Method: As noted above, the compounds of this invention are potent inhibitors of cyclin-dependent kinases, and accordingly, are useful in treating and preventing neurodegenerative disorders, atherosclerosis, and other cell proliferative disorders like cancer. […] A typical assay, for instance, measures inhibitory activity against the cyclin D dependent kinase 4 enzyme (cdk4/D). […] The cdk4 assay was carried out as follows.
Cyclin-Dependent Kinase 4 (cdk4) Assay
Enzyme assays for IC50 determinations (Table 1 above) and kinetic evaluation were performed in 96 well filter plates (Millipore MADVN6550). The total volume was 0.1 mL containing a final concentration of 20 mM TRIS (tris[hydroxymethyl]aminomethane), at pH 7.4, 50 mM NaCl, 1 mM dithiothreitol, 10 mM MgCl2, 25 μM ATP containing 0.25 μCi of [^32P]ATP, 20 ng of cdk4, 1 μg of retinoblastoma, and appropriate dilutions of a compound of the present invention. All components except the ATP were added to the wells, and the plate was placed on a plate mixer for 2 minutes. The reaction was started by adding [^32P]ATP and the plate was incubated at 25° C. for 15 minutes. The reaction was terminated by addition of 0.1 mL of 20% trichloroacetic acid (TCA). The plate was kept at 4° C. for at least 1 hour to allow the substrate to precipitate. The wells were then washed five times with 0.2 mL of 10% TCA and ^32P incorporation was determined with a beta plate counter (Wallac Inc., Gaithersburg, Md.).

cdk2/cyclinE = cdk2/cyclinE (Homo sapiens, UniProt P24941); assay: cdk2/cyclinE kinase assay; assay type: biochemical; settings: 32P incorporation into retinoblastoma, 25° C., 15 minutes; read-out: Cdk2E IC50
Method: (§1) All components except the ATP were added to the wells, and the plate was placed on a plate mixer for 2 minutes. The reaction was begun by addition of [^32P]ATP, and the plate was incubated at 25° C. for 15 minutes. The reaction was terminated by addition of 0.1 mL of 20% TCA. The plate was kept at 4° C. for at least 1 hour to allow the substrate to precipitate. The wells were then washed five times with 0.2 mL of 10% TCA and ^32P incorporation determined with a beta plate counter (Wallac Inc., Gaithersburg, Md.).

cdc2/cyclinB = cdc2/cyclinB (Homo sapiens, UniProt P06493); assay: cdc2/cyclinB kinase assay (Table 1, CdkB); assay type: biochemical; settings: 32P incorporation into retinoblastoma, 25° C., 15 minutes
Sequence of cdc2/cyclinB (P06493 whole entry, species assumed): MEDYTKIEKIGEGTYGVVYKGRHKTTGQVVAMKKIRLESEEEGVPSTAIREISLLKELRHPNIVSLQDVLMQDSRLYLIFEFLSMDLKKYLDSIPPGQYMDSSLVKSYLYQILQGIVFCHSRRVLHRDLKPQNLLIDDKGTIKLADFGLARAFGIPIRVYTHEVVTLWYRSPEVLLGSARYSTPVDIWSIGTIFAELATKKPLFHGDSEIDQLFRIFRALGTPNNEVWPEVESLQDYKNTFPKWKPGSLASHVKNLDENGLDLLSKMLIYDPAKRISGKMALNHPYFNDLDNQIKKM
Sequence of cdc2/cyclinB (P14635 whole entry partner, species assumed): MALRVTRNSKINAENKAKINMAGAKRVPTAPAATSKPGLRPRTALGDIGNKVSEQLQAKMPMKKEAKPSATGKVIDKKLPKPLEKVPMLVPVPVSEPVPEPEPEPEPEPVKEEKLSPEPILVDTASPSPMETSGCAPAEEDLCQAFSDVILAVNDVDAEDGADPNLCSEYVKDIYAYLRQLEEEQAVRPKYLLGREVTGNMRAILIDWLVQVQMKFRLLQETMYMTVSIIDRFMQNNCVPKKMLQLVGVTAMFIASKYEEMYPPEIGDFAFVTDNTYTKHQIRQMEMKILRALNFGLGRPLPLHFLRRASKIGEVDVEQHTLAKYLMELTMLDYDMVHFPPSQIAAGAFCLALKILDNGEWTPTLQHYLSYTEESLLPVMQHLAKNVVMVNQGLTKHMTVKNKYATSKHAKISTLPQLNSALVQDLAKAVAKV
Method: as §1

cdk2/A = cdk2/A (Homo sapiens, UniProt P24941); assay: cdk2/A kinase assay; assay type: biochemical; settings: 32P incorporation into retinoblastoma, 25° C., 15 minutes; read-out: Cdk2A IC50
Method: as §1

[1] = test system: herpes simplex virus (HSV); settings: cited from earlier work

Sequence of cdk4/D (P11802 whole entry, species assumed): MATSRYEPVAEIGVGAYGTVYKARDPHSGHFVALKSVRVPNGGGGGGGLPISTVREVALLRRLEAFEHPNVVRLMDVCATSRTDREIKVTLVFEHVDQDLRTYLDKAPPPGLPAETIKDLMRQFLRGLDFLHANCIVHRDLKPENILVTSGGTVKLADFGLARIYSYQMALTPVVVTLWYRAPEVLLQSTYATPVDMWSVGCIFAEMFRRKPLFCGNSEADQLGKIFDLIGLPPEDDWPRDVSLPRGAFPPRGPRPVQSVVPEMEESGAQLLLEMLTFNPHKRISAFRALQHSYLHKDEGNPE
Sequence of cdk4/D (P24385 whole entry partner, species assumed): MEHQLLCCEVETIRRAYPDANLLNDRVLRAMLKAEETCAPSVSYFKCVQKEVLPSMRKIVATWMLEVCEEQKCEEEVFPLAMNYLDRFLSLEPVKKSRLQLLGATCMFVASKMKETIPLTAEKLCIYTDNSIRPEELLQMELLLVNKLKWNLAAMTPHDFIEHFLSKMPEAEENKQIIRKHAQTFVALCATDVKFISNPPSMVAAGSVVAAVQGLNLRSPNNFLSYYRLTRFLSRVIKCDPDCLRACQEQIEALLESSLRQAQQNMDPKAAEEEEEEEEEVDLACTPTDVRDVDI

Row | Structure (SMILES) | inhibition of neointima formation (neointima formation) | melting point | IC50 (cdk4/D) | IC50 (cdk2/cyclinE) | IC50 (cdc2/cyclinB) | IC50 (cdk2/A) | HSV replication [1]
1 | COc1ccc(CNc2nc(N(CCO)CCO)nc3c2ncn3C(C)C)cc1 [CVT-313] | greater than 80% |  |  |  |  |  | 
2 | COc1ccc2cnc(Nc3ccc(N4CCCC4)cc3)nc2c1C(C)C [Example 22, (8-Isopropyl-7-methoxy-quinazolin-2-yl)-(4-pyrrolidin-1-yl-phenyl)-amine] |  | 188 to 190 °C | 560 nM | > 5000 nM | > 5000 nM | 1600 nM | 
3 | COc1ccc2cnc(Nc3ccc(N4CCN(C(=O)CN)CC4)cc3)nc2c1C(C)C [Example 35, 2-Amino-1-{4-[4-(8-Isopropyl-7-methoxy-quinazolin-2-ylamino)-phenyl]-piperazin-1-yl}-ethanone] |  | 183 to 185 °C | 10 nM | 1100 nM | 800 nM | 191 nM | 
4 | CC[C@H](CO)Nc1nc(NCc2ccccc2)c2ncn(C(C)C)c2n1 [roscovitine] |  |  |  |  |  |  | inhibited
5 | COc1ccc2cnc(Nc3ccc(N4CCC(N)C4)cc3)nc2c1C1CCCC1 (centres unmarked) [Example 41, [4-(3-Amino-pyrrolidin-1-yl)-phenyl]-(8-cyclopentyl-7-methoxy-quinazolin-2-yl)-amine] |  | 220 to 221 °C | 116 nM | 950 nM | 398 nM | 203 nM | 
